Legend:
PI3K-γ = PI3K-γ (Homo sapiens (Human), UniProt P48736); assay: ADAPTA kinase assay, PI3K-γ; assay type: biochemical; details: ADAPTA assay format; for IC50: ATP at Km
Method: (§1) The enzymatic activities against PI3K-α, PI3K-β, PI3K-γ and PI3K-δ were tested in ADAPTA assays. Activity against […] were tested in Z′-Lyte assays. All assays were performed with ATP concentrations of Km for each kinase. BRD4_1 binding was tested using an AlphaScreen assay. All protocols are available from Life Technologies.
as §1, with “against PI3K-α, PI3K-γ and” for “against PI3K-α, PI3K-β, PI3K-γ and”, “assay. All the protocols are” for “assay. All protocols are”

PI3K-δ = PI3K-δ (Homo sapiens (Human), UniProt O00329); assay: ADAPTA kinase assay, PI3K-δ; assay type: biochemical; details: ADAPTA assay format; for IC50: ATP at Km
Chain of PI3K-δ (O00329 whole entry): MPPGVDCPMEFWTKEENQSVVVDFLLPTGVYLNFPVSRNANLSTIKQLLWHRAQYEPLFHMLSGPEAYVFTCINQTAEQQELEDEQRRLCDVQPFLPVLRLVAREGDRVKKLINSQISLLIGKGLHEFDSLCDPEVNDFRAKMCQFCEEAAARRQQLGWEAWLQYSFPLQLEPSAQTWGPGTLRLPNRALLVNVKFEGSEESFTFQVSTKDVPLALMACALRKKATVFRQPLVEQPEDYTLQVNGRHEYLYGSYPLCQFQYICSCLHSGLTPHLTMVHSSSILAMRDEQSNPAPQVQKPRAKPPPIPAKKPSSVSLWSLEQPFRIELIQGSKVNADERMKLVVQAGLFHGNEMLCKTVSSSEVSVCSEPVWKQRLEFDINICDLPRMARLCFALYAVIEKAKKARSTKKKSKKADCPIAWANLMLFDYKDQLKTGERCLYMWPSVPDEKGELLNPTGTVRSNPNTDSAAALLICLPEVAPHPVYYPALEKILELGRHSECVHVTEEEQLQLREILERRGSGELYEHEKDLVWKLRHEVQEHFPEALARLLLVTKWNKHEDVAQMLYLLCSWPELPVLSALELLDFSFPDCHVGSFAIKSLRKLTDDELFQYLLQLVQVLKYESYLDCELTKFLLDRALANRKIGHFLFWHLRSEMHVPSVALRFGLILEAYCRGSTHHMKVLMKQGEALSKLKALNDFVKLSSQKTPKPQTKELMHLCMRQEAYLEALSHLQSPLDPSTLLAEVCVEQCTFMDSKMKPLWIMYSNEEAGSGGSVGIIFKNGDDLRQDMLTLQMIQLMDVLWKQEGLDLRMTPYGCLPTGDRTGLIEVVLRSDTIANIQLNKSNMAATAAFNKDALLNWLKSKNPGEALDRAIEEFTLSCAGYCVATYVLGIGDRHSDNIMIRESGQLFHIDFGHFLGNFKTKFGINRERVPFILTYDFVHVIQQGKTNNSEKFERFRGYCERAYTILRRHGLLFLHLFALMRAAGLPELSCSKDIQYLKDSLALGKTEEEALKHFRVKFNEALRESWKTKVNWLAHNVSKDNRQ
Chain of PI3K-δ (P27986 whole entry partner): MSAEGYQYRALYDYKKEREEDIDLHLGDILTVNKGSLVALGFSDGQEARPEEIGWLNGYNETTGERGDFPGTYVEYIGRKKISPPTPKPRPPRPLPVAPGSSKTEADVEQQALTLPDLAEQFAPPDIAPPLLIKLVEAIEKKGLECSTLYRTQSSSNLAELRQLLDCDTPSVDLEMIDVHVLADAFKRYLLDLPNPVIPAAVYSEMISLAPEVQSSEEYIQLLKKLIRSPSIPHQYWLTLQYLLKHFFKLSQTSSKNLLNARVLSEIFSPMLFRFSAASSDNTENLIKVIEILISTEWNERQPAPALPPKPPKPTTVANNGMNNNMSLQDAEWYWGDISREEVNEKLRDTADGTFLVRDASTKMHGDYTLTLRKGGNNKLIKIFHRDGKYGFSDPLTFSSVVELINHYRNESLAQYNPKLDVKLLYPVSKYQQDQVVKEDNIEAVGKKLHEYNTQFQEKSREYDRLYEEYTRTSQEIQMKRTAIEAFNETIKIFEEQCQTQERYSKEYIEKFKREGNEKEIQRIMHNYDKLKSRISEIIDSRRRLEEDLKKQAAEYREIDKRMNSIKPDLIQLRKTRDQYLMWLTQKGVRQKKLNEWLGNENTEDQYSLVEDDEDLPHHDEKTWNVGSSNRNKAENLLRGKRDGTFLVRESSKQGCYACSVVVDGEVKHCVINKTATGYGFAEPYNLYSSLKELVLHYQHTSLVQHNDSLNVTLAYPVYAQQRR
Method: as §1
as §1, with “against PI3K-α, PI3K-γ and” for “against PI3K-α, PI3K-β, PI3K-γ and”, “assay. All the protocols are” for “assay. All protocols are”

Aurora A = Aurora A (Homo sapiens (Human), UniProt O14965); assay: Z'-LYTE kinase assay, Aurora A; assay type: biochemical; details: Z'LYTE assay format, ATP at Km
Chain of Aurora A (O14965 whole entry): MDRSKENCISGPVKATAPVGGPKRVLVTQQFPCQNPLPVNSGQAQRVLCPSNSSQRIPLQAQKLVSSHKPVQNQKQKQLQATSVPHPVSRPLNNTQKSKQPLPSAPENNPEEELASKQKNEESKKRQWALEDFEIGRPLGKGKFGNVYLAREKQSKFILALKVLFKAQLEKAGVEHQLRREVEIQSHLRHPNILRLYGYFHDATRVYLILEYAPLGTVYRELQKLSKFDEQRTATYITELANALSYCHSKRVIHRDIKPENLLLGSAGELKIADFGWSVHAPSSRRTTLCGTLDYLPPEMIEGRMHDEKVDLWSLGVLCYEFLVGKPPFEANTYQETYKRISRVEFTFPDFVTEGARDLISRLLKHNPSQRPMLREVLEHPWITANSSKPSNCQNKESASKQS
Method: The enzymatic activities against PI3K-α, PI3K-β, PI3K-γ and PI3K-δ were tested in ADAPTA assays. […] All assays were performed with ATP concentrations of Km for each kinase. BRD4_1 binding was tested using an AlphaScreen assay. All protocols are available from Life Technologies.
The enzymatic activities against PI3K-α, PI3K-γ and PI3K-δ were tested in ADAPTA assays. […] All assays were performed with ATP concentrations of Km for each kinase. BRD4_1 binding was tested using an AlphaScreen assay. All the protocols are available from Life Technologies.

Aurora B = Aurora B (Homo sapiens (Human), UniProt Q96GD4); assay: Z'-LYTE kinase assay, Aurora B; assay type: biochemical; details: Z'LYTE assay format, ATP at Km
Chain of Aurora B (Q96GD4 whole entry): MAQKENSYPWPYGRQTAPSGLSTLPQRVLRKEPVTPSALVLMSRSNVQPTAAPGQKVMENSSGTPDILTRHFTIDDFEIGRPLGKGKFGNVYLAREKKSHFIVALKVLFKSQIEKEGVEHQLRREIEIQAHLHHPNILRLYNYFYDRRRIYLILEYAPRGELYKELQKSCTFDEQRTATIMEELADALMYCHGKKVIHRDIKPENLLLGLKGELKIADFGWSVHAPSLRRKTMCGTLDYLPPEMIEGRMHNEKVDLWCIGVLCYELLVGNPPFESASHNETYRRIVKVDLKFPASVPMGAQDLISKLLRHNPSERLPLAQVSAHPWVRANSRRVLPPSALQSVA
Method: as §1
as §1, with “against PI3K-α, PI3K-γ and” for “against PI3K-α, PI3K-β, PI3K-γ and”, “assay. All the protocols are” for “assay. All protocols are”

Jurkat cells = assay: CellTiter-Glo proliferation / cell viability assay, Jurkat; assay type: cell-based; details: Homo sapiens, 72 h, 3 days, average of three replicates
Method: (§2) Proliferation assays were conducted in Jurkat or MOLT4 cell lines using Cell Titer Glo as described in product manual.
(§3) Cell viability assays were performed using CellTiter-Glo (Promega). Cells were grown in RPMI-10% FBS medium. 600 cells per well were seeded in a 96-well plate and then treated with eight doses of each compound in 3-fold dilution steps ranging from 10 um to 0.0046 uM for 3 days. Wells were imaged using a luminometer. IC50 were determined using Prism software. Data was normalized to a dimethyl sulfoxide (DMSO)-only control.

MOLT4 cells = assay: CellTiter-Glo proliferation / cell viability assay, MOLT4; assay type: cell-based; details: Homo sapiens, MOLT-4, 72 h, 3 days, average of three replicates
Method: as §2, §3

MV4:11 cells = assay: CellTiter-Glo cell viability assay, MV4:11; assay type: cell-based; details: Homo sapiens, MV4-11, 72 h, 3 days, average of three replicates
Method: as §3

Molm14 cells = assay: CellTiter-Glo cell viability assay, Molm14; assay type: cell-based; details: Homo sapiens, MOLM-14, 72 h, 3 days, average of three replicates
Method: as §3

Loucy cells = assay: CellTiter-Glo cell viability assay, Loucy; assay type: cell-based; details: 72 h, 3 days, average of three replicates
Method: as §3

[1] = test system: patient-derived primary CLL cells; assay: CellTiter-Glo cell viability assay, patient-derived primary CLL cells; assay type: cell-based; details: Homo sapiens
Method: The CellTiter-Glo assay (Promega) was used to determine the viability of cells from chronic lymphocytic leukemia (CLL) patients at baseline (primary human patient derived CLL cells), upon IgM stimulation, and after drug treatment. IgM stimulation was conducted using AffiniPure F(ab′)2 Fragment Goat Anti-Human IgM (Jackson ImmunoResearch). Cell viability results after drug treatment are presented in FIG. 7A (IgM-stimulated cells) and FIG. 7B (PBS control).

[2] = test system: PI3K-δ signaling (HMEC expressing CA-p110δ); assay: PI3K cellular signaling assay in isogenic HMEC lines (Western blot); assay type: cell-based; details: 10 nM concentration, FIG. 4C
Method: HMEC derivative cell lines were serum-starved for 3 hours, then treated with the indicated compounds at 0.01 μM, 0.1 μM, or 1 μM for 1 h. Cell lysates were prepared and subjected to Western blot assays with the indicated antibodies. Du, Duvelisib; Id, Idelalisib.
PI3K cellular signaling assays were performed as previously described (Reference 18).
HMEC derivative cells were cultured as described previously (Ni J, Liu Q, Xie S, et al. Functional characterization of an isoform-selective inhibitor of PI3K-p110beta as a potential anticancer agent. Cancer discovery. 2012; 2(5):425-433).
Western blot analysis was performed as previously described (Reference 1). Anti-phospho-AKT (Thr308) (#4056), anti-phospho-AKT (Ser473) (#4060), anti-AKT (#9272), anti-phospho-S6 ribosomal protein (Ser235/236) (#2211), anti-S6 ribosomal protein (#2217) antibodies were all from Cell Signaling Technology (Hanover, Mass.), and anti-α-tubulin antibody was from Sigma (Rockford, Ill.).

PI3K-α = PI3K-α (Homo sapiens (Human), UniProt P42336); assay: ADAPTA kinase assay, PI3K-α; assay type: biochemical; details: ADAPTA assay format, ATP at Km
Method: as §1
as §1, with “against PI3K-α, PI3K-γ and” for “against PI3K-α, PI3K-β, PI3K-γ and”, “assay. All the protocols are” for “assay. All protocols are”

PI3K-β = PI3K-β (Homo sapiens (Human), UniProt P42338); assay: ADAPTA kinase assay, PI3K-β; assay type: biochemical; details: ADAPTA assay format, ATP at Km
Chain of PI3K-β (P42338 whole entry): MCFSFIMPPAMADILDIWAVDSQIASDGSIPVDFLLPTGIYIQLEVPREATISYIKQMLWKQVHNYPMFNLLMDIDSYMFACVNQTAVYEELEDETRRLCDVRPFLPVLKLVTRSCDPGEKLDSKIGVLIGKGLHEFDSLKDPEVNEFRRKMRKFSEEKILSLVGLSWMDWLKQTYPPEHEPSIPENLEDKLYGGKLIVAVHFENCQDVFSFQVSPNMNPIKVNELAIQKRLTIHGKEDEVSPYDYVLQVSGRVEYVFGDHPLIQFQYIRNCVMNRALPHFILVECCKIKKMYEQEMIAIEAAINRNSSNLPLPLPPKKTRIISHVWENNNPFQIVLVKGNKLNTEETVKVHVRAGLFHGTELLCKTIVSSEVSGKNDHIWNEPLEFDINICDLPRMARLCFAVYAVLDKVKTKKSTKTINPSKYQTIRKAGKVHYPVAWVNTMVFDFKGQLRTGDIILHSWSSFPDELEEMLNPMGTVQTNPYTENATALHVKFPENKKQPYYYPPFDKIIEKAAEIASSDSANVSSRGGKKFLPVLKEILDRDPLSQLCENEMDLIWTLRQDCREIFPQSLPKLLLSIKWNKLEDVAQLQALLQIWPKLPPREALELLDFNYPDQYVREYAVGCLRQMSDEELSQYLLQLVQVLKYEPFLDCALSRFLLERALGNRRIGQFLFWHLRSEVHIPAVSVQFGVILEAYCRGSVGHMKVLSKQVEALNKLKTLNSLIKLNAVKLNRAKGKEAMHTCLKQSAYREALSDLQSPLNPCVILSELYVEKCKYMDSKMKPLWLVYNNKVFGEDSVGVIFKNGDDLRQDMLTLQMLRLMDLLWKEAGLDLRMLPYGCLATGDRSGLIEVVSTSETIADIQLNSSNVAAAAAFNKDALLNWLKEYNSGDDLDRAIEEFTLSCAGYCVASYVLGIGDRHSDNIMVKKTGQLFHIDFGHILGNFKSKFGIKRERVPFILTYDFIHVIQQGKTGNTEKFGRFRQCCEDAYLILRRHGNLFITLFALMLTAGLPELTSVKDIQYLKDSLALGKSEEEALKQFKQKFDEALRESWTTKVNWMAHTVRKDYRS
Chain of PI3K-β (P27986 whole entry partner): as the sequence (P27986 whole entry partner) above
Method: as §1
as §1, with “against PI3K-α, PI3K-γ and” for “against PI3K-α, PI3K-β, PI3K-γ and”, “assay. All the protocols are” for “assay. All protocols are”

Chain of PI3K-γ (P48736 whole entry): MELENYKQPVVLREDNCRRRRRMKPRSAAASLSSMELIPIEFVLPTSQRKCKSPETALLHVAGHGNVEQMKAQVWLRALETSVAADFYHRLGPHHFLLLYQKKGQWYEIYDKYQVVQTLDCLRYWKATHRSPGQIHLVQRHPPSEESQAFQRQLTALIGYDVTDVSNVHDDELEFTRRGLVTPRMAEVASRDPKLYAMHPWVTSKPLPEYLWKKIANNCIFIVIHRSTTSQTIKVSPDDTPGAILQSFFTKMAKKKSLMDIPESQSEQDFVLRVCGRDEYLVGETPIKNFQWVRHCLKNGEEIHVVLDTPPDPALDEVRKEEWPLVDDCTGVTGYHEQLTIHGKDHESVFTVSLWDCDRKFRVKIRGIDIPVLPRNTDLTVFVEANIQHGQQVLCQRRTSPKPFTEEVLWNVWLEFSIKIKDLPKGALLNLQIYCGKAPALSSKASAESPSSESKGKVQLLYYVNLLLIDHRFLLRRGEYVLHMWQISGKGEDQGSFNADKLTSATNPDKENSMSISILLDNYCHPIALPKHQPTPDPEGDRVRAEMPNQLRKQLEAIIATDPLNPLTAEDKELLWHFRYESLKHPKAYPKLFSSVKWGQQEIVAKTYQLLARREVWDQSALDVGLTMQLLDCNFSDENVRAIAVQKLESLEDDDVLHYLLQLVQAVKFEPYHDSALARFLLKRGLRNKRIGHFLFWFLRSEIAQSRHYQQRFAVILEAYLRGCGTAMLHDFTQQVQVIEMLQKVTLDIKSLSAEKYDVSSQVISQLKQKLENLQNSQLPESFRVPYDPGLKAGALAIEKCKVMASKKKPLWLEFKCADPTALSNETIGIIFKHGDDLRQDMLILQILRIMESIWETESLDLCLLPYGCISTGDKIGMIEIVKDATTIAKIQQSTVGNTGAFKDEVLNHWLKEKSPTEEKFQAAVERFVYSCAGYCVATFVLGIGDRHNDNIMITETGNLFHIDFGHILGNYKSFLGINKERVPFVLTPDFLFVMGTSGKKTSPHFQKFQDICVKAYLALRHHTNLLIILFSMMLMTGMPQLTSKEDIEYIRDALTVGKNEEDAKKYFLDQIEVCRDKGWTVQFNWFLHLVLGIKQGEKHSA

Compound | IC50 (PI3K-γ) | IC50 (PI3K-δ) | IC50 (Aurora A) | IC50 (Aurora B) | also measured
Cc1ccc2c(c1)C(=O)N(C)c1cnc(Nc3ccc(S(=O)(=O)N4CCN(C)CC4)cc3)nc1N2C [Compound 11, 5,8,11-trimethyl-2-((4-((4-methylpiperazin-1-yl)sulfonyl)phenyl)amino)-5,11-dihydro-6H-benzo[e]pyrimido[5,4-b][1,4]diazepin-6-one] | 2610 nM | 3250 nM |  |  | 
C[C@H](Nc1ncnc2nc[nH]c12)c1cc2cccc(Cl)c2c(=O)n1-c1ccccc1 [Duvelisib, reference compound] |  |  |  |  | potency in the PI3K-δ assay compared with clinical compounds (PI3K-δ; FIG. 4B): the most potent; IC50 (Jurkat cells): 1900 nM; IC50 (MOLT4 cells): 2300 nM; IC50 (MV4:11 cells): 4400 nM; IC50 (Molm14 cells): 1200 nM; IC50 (Loucy cells): 980 nM; IC50 [1]: > 10000 nM; inhibition of PI3K-δ signaling (AKT and S6RP phosphorylation) [2]: the most potent PI3K-δ inhibitor
CC[C@H](Nc1ncnc2[nH]cnc12)c1nc2cccc(F)c2c(=O)n1-c1ccccc1 [Idelalisib, reference compound] |  |  |  |  | potency in the PI3K-γ assay compared with clinical compounds (PI3K-γ; FIG. 4B): much less potent; IC50 [1]: > 10000 nM; inhibition of PI3K-δ signaling (AKT and S6RP phosphorylation) [2]: comparable inhibition of, and selectivity for, PI3K-δ signaling
Cc1ccc2c(c1)C(=O)N(C)c1cnc(Nc3ccc(S(N)(=O)=O)cc3)nc1N2C [Compound 14] | 30 nM | 20 nM | 16 nM | 4 nM | 
Cc1ccc2c(c1)C(=O)N(C)c1cnc(Nc3cccc(S(=O)(=O)N4CCN(C)CC4)c3)nc1N2C [Compound 10] | 50.7 nM | 558 nM |  |  | 
CN1C(=O)c2ccccc2N(C)c2nc(Nc3ccc(S(N)(=O)=O)cc3)ncc21 [Compound 16] | 49 nM | 14.5 nM | 4.8 nM | 13.3 nM | 
CN1C(=O)c2ccccc2N(C)c2nc(Nc3cccc(S(N)(=O)=O)c3)ncc21 [Compound 17] | 4 nM | 4 nM | 2 nM | 4 nM | 
Cc1cc(S(N)(=O)=O)ccc1Nc1ncc2c(n1)N(C)c1ccccc1C(=O)N2C [Compound 18] | 822 nM | 2380 nM | 4850 nM | 9360 nM | 
Cc1ccc2c(c1)C(=O)N(C)c1cnc(Nc3ccc(S(=O)(=O)N4CCC(O)CC4)cc3)nc1N2C [Compound 13, 2-((4-((4-hydroxypiperidin-1-yl)sulfonyl)phenyl)amino)-5,8,11-trimethyl-5,11-dihydro-6H-benzo[e]pyrimido[5,4-b][1,4]diazepin-6-one] | 41 nM | 58 nM |  |  | 

Now from value to compound, other results behind:

IC50 (PI3K-γ) | IC50 (PI3K-δ) | IC50 (Aurora A) | IC50 (Aurora B) | Compound | also measured
438 nM | 343 nM |  |  | C=CC(=O)Nc1cccc(NS(=O)(=O)c2ccc(Nc3ncc4c(n3)N(C)c3ccc(C)cc3C(=O)N4C)cc2)c1 [Compound 8, N-(3-((4-((5,8,11-trimethyl-6-oxo-6,11-dihydro-5H-benzo[e]pyrimido[5,4-b][1,4]diazepin-2-yl)amino)phenyl)sulfonamido)phenyl)acrylamide] | 
39 nM | 328 nM | 188 nM | 130 nM | C=CC(=O)Nc1cccc(NS(=O)(=O)c2cccc(Nc3ncc4c(n3)N(C)c3ccc(C)cc3C(=O)N4C)c2)c1 [Compound 7, N-(3-((3-((5,8,11-trimethyl-6-oxo-6,11-dihydro-5H-benzo[e]pyrimido[5,4-b][1,4]diazepin-2-yl)amino)phenyl)sulfonamido)phenyl)acrylamide] | 
20 nM | 122 nM | 355 nM | 631 nM | C=CC(=O)NC1CCN(S(=O)(=O)c2cccc(Nc3ncc4c(n3)N(C)c3ccc(C)cc3C(=O)N4C)c2)CC1 [Compound 3, N-(1-((3-((5,8,11-trimethyl-6-oxo-6,11-dihydro-5H-benzo[e]pyrimido[5,4-b][1,4]diazepin-2-yl)amino)phenyl)sulfonyl)piperidin-4-yl)acrylamide] | 
231 nM | 112 nM | 23 nM | 16 nM | C=CC(=O)N1CCN(S(=O)(=O)c2ccc(Nc3ncc4c(n3)N(C)c3ccc(C)cc3C(=O)N4C)cc2)CC1 [Compound 2, 2-((4-((4-acryloylpiperazin-1-yl)sulfonyl)phenyl)amino)-5,8,11-trimethyl-5,11-dihydro-6H-benzo[e]pyrimido[5,4-b][1,4]diazepin-6-one] | 
29.3 nM | 15 nM | 272 nM | 290 nM | C=CC(=O)Nc1ccc(NS(=O)(=O)c2cccc(Nc3ncc4c(n3)N(C)c3ccc(C)cc3C(=O)N4C)c2)cc1 [Compound 5, N-(4-((3-((5,8,11-trimethyl-6-oxo-6,11-dihydro-5H-benzo[e]pyrimido[5,4-b][1,4]diazepin-2-yl)amino)phenyl)sulfonamido)phenyl)acrylamide] | IC50 (PI3K-α): 728 nM; IC50 (PI3K-β): > 10000 nM
75.9 nM | 108 nM |  |  | Cc1ccc2c(c1)C(=O)N(C)c1cnc(Nc3cccc(S(N)(=O)=O)c3)nc1N2C [Compound 15, 3-((5,8,11-trimethyl-6-oxo-6,11-dihydro-5H-benzo[e]pyrimido[5,4-b][1,4]diazepin-2-yl)amino)benzenesulfonamide] | 
123 nM | 48.6 nM |  |  | C=CC(=O)NC1CCN(S(=O)(=O)c2ccc(Nc3ncc4c(n3)N(C)c3ccc(C)cc3C(=O)N4C)cc2)CC1 [Compound 4, N-(1-((4-((5,8,11-trimethyl-6-oxo-6,11-dihydro-5H-benzo[e]pyrimido[5,4-b][1,4]diazepin-2-yl)amino)phenyl)sulfonyl)piperidin-4-yl)acrylamide] | 
96 nM | 306 nM | 49 nM | 80 nM | C=CC(=O)Nc1ccc(NS(=O)(=O)c2ccc(Nc3ncc4c(n3)N(C)c3ccc(C)cc3C(=O)N4C)cc2)cc1 [Compound 6, N-(4-((4-((5,8,11-trimethyl-6-oxo-6,11-dihydro-5H-benzo[e]pyrimido[5,4-b][1,4]diazepin-2-yl)amino)phenyl)sulfonamido)phenyl)acrylamide] | 

Reference: patent publication US11155556B2, “Pyrimido-diazepinone kinase scaffold compounds and methods for treating PI3K-mediated disorders” (DANA-FARBER CANCER INSTITUTE, INC., priority 2016, dated 2021)
